Counter-ions that a name gives are not always drawn.
Experiments:
Wee1 kinase = molecular target: T1, Wee1 kinase (Homo sapiens, UniProt P30291); assay: Wee1 kinase inhibitory effect (Pharmacological Test 1); assay type: biochemical; details: GST-tagged Wee1 kinase, Poly(Lys, Tyr) substrate, 10 μM ATP, 30° C. for 30 minutes
T1 construct: made in house; host or cells: Sf9 insect cells (recombinant baculovirus)
From the text: Pharmacological Test 1 (Wee1 Kinase Inhibitory Effect)
(1) Purification of Wee1 Kinase
A cDNA of Wee1 kinase with […] (GST) fused at the amino terminal thereof was inserted into a baculovirus expression vector to construct a recombinant baculovirus, with which cells of an insect cell line Sf9 were infected to overexpress the target protein. The infected cells were collected and lysed, and then the GST-tagged Wee1 kinase protein was adsorbed to a glutathione column and eluted from the column with glutathione, and the active fraction was desalted in a desalting column to give a purified enzyme.
(2) Measurement of Wee1 Kinase Activity
In measurement of the Wee1 kinase activity, a synthetic peptide, Poly(Lys, Tyr) hydrobromide (Lys:Tyr (4:1)) purchased from Sigma was used as the substrate.
The amount of the reaction mixture was 21.1 μL; and the composition of the reaction buffer was 50 mM Tris-HCl buffer (pH 7.4)/10 mM magnesium chloride/1 mM dithiothreitol. The purified Wee1 kinase, 2.5 μg of the substrate peptide, 10 μM of non-labeled adenosine triphosphate (ATP) and 1 μCi of [γ-^33P]-labeled ATP (2500 Ci/mmol or more) were added to the reaction buffer, and the resulting mixture was incubated at 30° C. for 30 minutes. Thereafter, 10 μL of 350 mM phosphate buffer was added to the reaction system to stop the reaction. The substrate peptide was adsorbed on a P81 paper filter 96-well plate and the plate was washed several times with 130 mM phosphate buffer, and the radioactivity thereof was counted using a liquid scintillation counter. The [γ-^33P]-labeled ATP was purchased from Amersham Bioscience, Ltd.
The addition of a test compound to the reaction system was carried out by preparing a series of dilutions of the compound with dimethyl sulfoxide (DMSO) and adding 1.1 μL of each dilution to the reaction system. As a control, 1.1 μL of DMSO was added to the reaction system.

[1] = tested on: Cdc2 (Cdk1) tyrosine-15 phosphorylation; assay: Inhibitory effect on Cdc2 (Cdk1) tyrosine-15 phosphorylation in NCI-H1299 cells (Pharmacological Test 2); assay type: cell-based; details: Homo sapiens, camptothecin 200 nM 16 hours, then test compound with nocodazole 8 hours, ELISA, read-out: Cdc2-Y15 Phosphorylation-Inhibitory Effect (H1299, +camptothecin) (EC50)
From the text: Pharmacological Test 2 (Method for Determining Drug Effect Using Cells (Inhibitory Effect on Cdc2 (Cdk1) Tyrosine-15 Phosphorylation))
Fetal bovine serum (FBS) was purchased from Morgate, Inc.; an RPMI-1640 medium and a DMEM medium were purchased from Invitrogen, Inc.; camptothecin was purchased from Sigma Co.; gemcitabine was purchased from Eli Lilly Japan K.K.; nocodazole and protease inhibitor cocktail were purchased from Sigma Co.; a rabbit anti-Cdc2 antibody and a mouse anti-Cdc2 antibody were purchased from Santa Cruz Biotechnology, Inc.; a rabbit anti-tyrosine-15-phosphorylated Cdc2 antibody and a horseradish peroxidase-labeled anti-mouse IgG antibody were purchased from Cell Signaling Technology, Inc.; and Sure Blue Reserve TMB peroxidase substrate was purchased from Kirkegaard & Perry Laboratories, Inc.
A human non-small cell lung cancer cell line (NCI-H1299) and a human colon cancer cell line (WiDr) can be obtained from American Type Culture Collection (ATCC).
In the method using NCI-H1299 cells, the cells were suspended in an RPMI-1640 medium supplemented with 10% FBS, and 100 μL of the resulting cell suspension was dispensed in a Nunclon Delta treated 96-well plastic plate purchased from Nunc, Inc. at a density of 2000 cells per well, and the plate was incubated overnight at 37° C. under an atmosphere of 5% CO2 and 95% air. Camptothecin was dissolved in dimethyl sulfoxide (DMSO) and further the resulting solution was diluted with an RPMI-1640 medium supplemented with 10% FBS. Then, 50 μL of the diluted solution was added to each well of the plate in which the cells were seeded in advance such that the final concentration of camptothecin was 200 nM, and the plate was incubated at 37° C. under an atmosphere of 5% CO2 and 95% air for 16 hours. A test compound was serially diluted with DMSO, and further diluted with an RPMI-1640 medium supplemented with 10% FBS containing 4000 nM nocodazole. Then, 50 μL of the test compound solution was added to each well of the plate in which the cells treated with camptothecin were seeded, and the plate was incubated at 37° C. under an atmosphere of 5% CO2 and 95% air for 8 hours. Then, the culture medium was removed from each well and 100 μL of a cell lysis buffer was added to each well, and the plate was shaken at 4° C. for 2 hours, and thereafter the liquid in the plate was frozen at −80° C. and then thawed, which was used as a lysed cell solution. Cdc2 and tyrosine-15-phosphorylated Cdc2 in this lysed cell solution were measured by an enzyme-linked immunosorbent assay (ELISA method), and a ratio of tyrosine-15-phosphorylated Cdc2 to Cdc2 was calculated to determine a 50% effective concentration (EC50, nM) of the test compound for inhibition of phosphorylation in cells. The cell lysis buffer as used herein is an aqueous solution containing 20 mM HEPES (pH 7.5), 150 mM sodium chloride, 1 mM disodium ethylenediamine tetraacetate, 0.1% polyoxyethylene (10) octylphenyl ether, 1% protease inhibitor cocktail, 1 mM dithiothreitol, 2 mM sodium orthovanadate, 10 mM sodium fluoride and 10 mM glycerol diphosphate. The measurement of Cdc2 by the ELISA method was carried out as follows. 50 μL of a solution of a rabbit anti-Cdc2 antibody obtained by diluting the antibody to 200 times with 50 mM carbonate-bicarbonate buffer (pH 9.6) was dispensed into each well of a 96-well Maxisorb immunoplate purchased from Nunc, Inc., and the immunoplate was let stand overnight at 4° C. to immobilize the antibody thereto. Subsequently, each well was washed three times with phosphate buffered saline (PBS), and 300 μL of PBS containing 5% bovine serum albumin (5% BSA/PBS) was added to each well, and then, the immunoplate was let stand at room temperature for 2 hours. […]

T1 sequence (P30291 whole entry): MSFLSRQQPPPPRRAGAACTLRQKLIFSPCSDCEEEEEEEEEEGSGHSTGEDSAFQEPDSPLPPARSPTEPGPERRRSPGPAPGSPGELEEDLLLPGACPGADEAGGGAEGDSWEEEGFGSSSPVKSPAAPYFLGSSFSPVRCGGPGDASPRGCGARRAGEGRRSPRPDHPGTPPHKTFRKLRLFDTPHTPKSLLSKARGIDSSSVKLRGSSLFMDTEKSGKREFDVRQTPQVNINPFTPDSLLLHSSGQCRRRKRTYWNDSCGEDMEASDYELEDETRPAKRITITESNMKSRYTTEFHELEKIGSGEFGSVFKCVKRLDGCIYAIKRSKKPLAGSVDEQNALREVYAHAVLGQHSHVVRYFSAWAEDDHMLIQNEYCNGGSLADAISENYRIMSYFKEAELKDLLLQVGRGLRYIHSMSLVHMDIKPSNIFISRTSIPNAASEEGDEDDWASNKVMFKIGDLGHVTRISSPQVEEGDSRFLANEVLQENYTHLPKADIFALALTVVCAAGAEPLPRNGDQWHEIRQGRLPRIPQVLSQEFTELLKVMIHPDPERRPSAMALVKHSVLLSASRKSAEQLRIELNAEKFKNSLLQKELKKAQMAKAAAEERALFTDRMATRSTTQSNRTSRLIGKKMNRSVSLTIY

SMILES	IC50 (Wee1 kinase)	EC50 [1]
CN(C)CCCOc1ccc(Nc2ncc3c(=O)n4c(nc3n2)c2ccccc2n4-c2nccs2)cc1 [Example 121, 2-({4-[3-(dimethylamino)propoxy]phenyl}amino)-7-(1,3-thiazol-2-yl)pyrimido[4′,5′:4,5]pyrimido[1,2-b]indazol-5(7H)-one]	23 nM	–
CN(C)[C@H]1CCN(c2ccc(Nc3ncc4c(=O)n5c(nc4n3)c3ccccc3n5-c3ncccn3)cc2)C1 [Example 79, 2-({4-[(3S)-3-(dimethylamino)pyrolidin-1-yl]phenyl}amino)-7-(pyrimidin-2-yl)pyrimido[4′,5′:4,5]pyrimido[1,2-b]indazol-5(7H)-one]	24 nM	370 nM
CN(C)CCN1CCOc2cc(Nc3ncc4c(=O)n5c(nc4n3)c3ccccc3n5-c3nccs3)ccc21 [Example 143, 2-({4-[2-(dimethylamino)ethyl]-3,4-dihydro-2H-1,4-benzoxazin-7-yl}amino)-7-(1,3-thiazol-2-yl)pyrimido[4′,5′:4,5]pyrimido[1,2-b]indazol-5(7H)-one]	15 nM	190 nM
CN1CCN(c2ccc(Nc3ncc4c(=O)n5c(nc4n3)c3ccccc3n5-c3ccccn3)cc2)CC1 [Example 23, 2-{[4-(4-methylpiperazin-1-yl)phenyl]amino}-7-(pyridin-2-yl)pyrimido[4′,5′:4,5]pyrimido[1,2-b]indazol-5(7H)-one]	30 nM	–
Cc1cc(Nc2ncc3c(=O)n4c(nc3n2)c2ccccc2n4-c2ccccn2)ccc1N1CCN(C)CC1 [Example 21, 2-{[3-methyl-4-(4-methylpiperazin-1-yl)phenyl]amino}-7-(pyridin-2-yl)pyrimido[4′,5′:4,5]pyrimido[1,2-b]indazol-5(7H)-one]	32 nM	111 nM
CN1CCN(c2ccc(Nc3ncc4c(=O)n5c(nc4n3)c3ccccc3n5-c3ncccn3)cc2)CC1 [Example 62, 2-{[4-(4-methylpiperazin-1-yl)phenyl]amino}-7-(pyrimidin-2-yl)pyrimido[4′,5′:4,5]pyrimido[1,2-b]indazol-5(7H)-one]	38 nM	–
CN1CCC(C)(c2ccc(Nc3ncc4c(=O)n5c(nc4n3)c3ccccc3n5-c3ncccn3)cc2)CC1 [Example 88, 2-{[4-(1,4-dimethylpiperidin-4-yl)phenyl]amino}-7-(pyrimidin-2-yl)pyrimido[4′,5′:4,5]pyrimido[1,2-b]indazol-5(7H)-one]	26 nM	–
CN(C)Cc1ccc(Nc2ncc3c(=O)n4c(nc3n2)c2ccccc2n4-c2ncccn2)cc1 [Example 91, 2-({-4-[(dimethylamino)methyl]phenyl}amino)-7-(pyrimidin-2-yl)pyrimido[4′,5′:4,5]pyrimido[1,2-b]indazol-5(7H)-one]	34 nM	–
CN1Cc2ccc(Nc3ncc4c(=O)n5c(nc4n3)c3ccccc3n5-c3ncccn3)cc2C1 [Example 102, 2-[(2-methyl-2,3-dihydro-1H-isoindol-5-yl)amino]-7-(pyrimidin-2-yl)pyrimido[4′,5′:4,5]pyrimido[1,2-b]indazol-5(7H)-one]	19 nM	–
Cc1cc(Nc2ncc3c(=O)n4c(nc3n2)c2ccccc2n4-c2ccsc2)ccc1N1CCN(C)CC1 [Example 55, 2-{[3-methyl-4-(4-methylpiperazin-1-yl)phenyl]amino}-7-(3-thienyl)pyrimido[4′,5′:4,5]pyrimido[1,2-b]indazol-5(7H)-one]	13 nM	–
CN(C)CCc1ccc(Nc2ncc3c(=O)n4c(nc3n2)c2ccccc2n4-c2ncccn2)cc1 [Example 92, 2-({4-[2-(dimethylamino)ethyl]phenyl}amino)-7-(pyrimidin-2-yl)pyrimido[4′,5′:4,5]pyrimido[1,2-b]indazol-5(7H)-one]	46 nM	–

The next lines start with the values.

IC50 (Wee1 kinase)	EC50 [1]	SMILES
6.1 nM	17 nM	CN1CCc2ccc(Nc3ncc4c(=O)n5c(nc4n3)c3ccccc3n5-c3nccs3)cc2C1 [Example 137, 2-[(2-methyl-1,2,3,4-tetrahydroisoquinolin-7-yl)amino]-7-(1,3-thiazol-2-yl)pyrimido[4′,5′:4,5]pyrimido[1,2-b]indazol-5(7H)-one]
3.9 nM	38 nM	CN1CCc2ccc(Nc3ncc4c(=O)n5c(nc4n3)c3ccccc3n5-c3ccccn3)cc2C1 [Example 44, 2-[(2-methyl-1,2,3,4-tetrahydroisoquinolin-7-yl)amino]-7-(pyridin-2-yl)pyrimido[4′,5′:4,5]pyrimido[1,2-b]indazol-5(7H)-one]
5.1 nM	52 nM	CN1CCc2cc(Nc3ncc4c(=O)n5c(nc4n3)c3ccccc3n5-c3ncccn3)ccc2C1 [Example 100, 2-[(2-methyl-1,2,3,4-tetrahydroisoquinolin-6-yl)amino]-7-(pyrimidin-2-yl)pyrimido[4′,5′:4,5]pyrimido[1,2-b]indazol-5(7H)-one]
4.9 nM	31 nM	CN1CCc2cc(Nc3ncc4c(=O)n5c(nc4n3)c3ccccc3n5-c3ccccn3)ccc2C1 [Example 43, 2-[(2-methyl-1,2,3,4-tetrahydroisoquinolin-6-yl)amino]-7-(pyridin-2-yl)pyrimido[4′,5′:4,5]pyrimido[1,2-b]indazol-5(7H)-one]
8.6 nM	–	CN1CCN(c2ccc(Nc3ncc4c(=O)n5c(nc4n3)c3ccc(O)cc3n5-c3ccccn3)cc2)CC1 [Example 150, 9-hydroxy-2-{[4-(4-methylpiperazin-1-yl)phenyl]amino}-7-(pyridin-2-yl)pyrimido[4′,5′:4,5]pyrimido[1,2-b]indazol-5(7H)-one trifluoroacetate]
5.3 nM	11 nM	CN1CCc2cc(Nc3ncc4c(=O)n5c(nc4n3)c3ccccc3n5-c3nccs3)ccc2C1 [Example 136, 2-[(2-methyl-1,2,3,4-tetrahydroisoquinolin-6-yl)amino]-7-(1,3-thiazol-2-yl)pyrimido[4′,5′:4,5]pyrimido[1,2-b]indazol-5(7H)-one]
3.8 nM	43 nM	CN1CCc2ccc(Nc3ncc4c(=O)n5c(nc4n3)c3ccccc3n5-c3ncccn3)cc2C1 [Example 101, 2-[(2-methyl-1,2,3,4-tetrahydroisoquinolin-7-yl)amino]-7-(pyrimidin-2-yl)pyrimido[4′,5′:4,5]pyrimido[1,2-b]indazol-5(7H)-one]
13 nM	–	CN1CCN(c2ccc(Nc3ncc4c(=O)n5c(nc4n3)c3ccccc3n5-c3cscn3)cc2)CC1 [Example 146, 2-{[4-(4-methylpiperazin-1-yl)phenyl]amino}-7-(1,3-thiazol-4-yl)pyrimido[4′,5′:4,5]pyrimido[1,2-b]indazol-5(7H)-one]

Source: patent US8288396B2, “Pyrimidopyrimidoindazole derivative” (MSDKK, priority 2009, dated 2012)
